Experimental findings from patent EP0558245A1, “Heterobicyclic compounds as antagogists of alpha-1 adrenergic and SHT1A receptors” (priority 1992, dated 1993) are described below.

The subject of data set [1] is noradrenaline induced contraction of urethra. The experiment in a line: Effects on urethral contractions (noradrenaline-induced) in anaesthetized dogs. Type of data set: in vivo. Particulars: for ED50: Canis lupus familiaris, iv, anaesthetized male beagle dogs, i.v. cumulative, active dose in inhibiting by 50% the noradrenaline induced contraction of urethra, read-out: Urethra ED50; for DBP/Urethra ratio: ratio between the active doses (selectivity index), * = non-selective: substantial effect on both urethra and DBP. From the text: (§1) In order to monitor systemic blood pressure (BP), a PE catheter was introduced into the aortic arch through the right common carotid artery.
(§2) A collateral of the left femoral vein was cannulated for infusion of anaesthetic, and the right femoral vein was cannulated for administration of drugs. For intrarterial (i.a.) injection of noradrenaline (NA), a PE catheter was introduced into the lower portion of abdominal aorta via the right external iliac artery. Through such procedure, NA was selectively distributed to the lower urinary tract. Via a midline laparotomy, the urinary bladder and proximal urethra were exposed. In order to prevent the filling of the bladder, the two ureters were cannulated and the urine led outside. In order to record the prostatic urethral pressure, a Mikro-tip catheter (6 F) was introduced into the bladder via the external urethral meatus, and withdrawn until the pressure transducer was positioned in the prostatic urethra. A ligature was secured between the neck of the bladder and urethra to isolate the response of the latter and avoid any interaction with the bladder. Another ligature was put around the Mikro-tip catheter at the external urethral meatus, to secure the catheter itself. After a stabilizing period following surgical procedure (30 min), in which arterial and prostatic urethral pressure were continuously monitored as basal values, i.a. administration of NA was made at intervals of 10 min. The dose of NA chosen was such to produce an increase of at least 100% in urethral pressure. The test compounds were administered i.v. in a cumulative manner with intervals of 15-20 min between administrations. I.a. injections of NA were repeated approximately 5 min. after every dosing of test compound. Dose response curves were constructed computing the percentage inhibition to the increase in urethral pressure (NA induced), and the percentage drop in blood pressure produced by the test compound.

Data set [2] deals with T1, 5HT1A receptors (Rattus norvegicus, UniProt P19327).
T1 construct: Rat hippocampi were homogenized; from tissue; host or cells: rat hippocampus membranes
T1 sequence (P19327 1-422): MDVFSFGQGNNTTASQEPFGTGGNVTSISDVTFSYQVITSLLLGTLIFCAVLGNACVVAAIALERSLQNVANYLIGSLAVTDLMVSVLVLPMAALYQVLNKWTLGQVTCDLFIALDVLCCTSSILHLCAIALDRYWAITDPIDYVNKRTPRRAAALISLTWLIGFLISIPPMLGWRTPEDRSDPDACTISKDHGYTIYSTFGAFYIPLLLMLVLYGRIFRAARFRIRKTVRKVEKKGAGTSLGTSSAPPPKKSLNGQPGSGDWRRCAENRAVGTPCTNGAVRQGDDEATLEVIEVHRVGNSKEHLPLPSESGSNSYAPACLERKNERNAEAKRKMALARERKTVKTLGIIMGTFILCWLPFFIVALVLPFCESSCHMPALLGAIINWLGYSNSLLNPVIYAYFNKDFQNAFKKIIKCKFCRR
The experiment in a line: [3H]8-OH-DPAT binding (5HT1A receptors), rat hippocampus membranes. The conditions noted are these: rat hippocampus crude membranes, [3H]8-OH-DPAT 1.0 nM, 25°C 30 min; read-out: Receptor Binding IC50 (nM) 5-HT1a.
Description: Rat hippocampi were homogenized in 50 volumes of original wet weight of ice-cold 50 mM Tris-HCl buffer pH 7.4. The homogenates were centrifuged at 48,000 x g for 10 minutes, and the pellets were resuspended in the same volume of ice-cold buffer, incubated for 10 minutes at 37°C, centrifuged and resuspended two more times. The final pellets obtained were resuspended in the same volume of buffer and incubated according to the conditions reported in the table below.
(§3) The incubations were terminated after the appropriate time (see table) by rapid filtration through Whatman GF/B filters using a Brandel cell harvester. The filters were washed twice with 15 ml of ice-cold buffer (see table). The radioactivity retained on the filters was determined by liquid scintillation counting. Nonspecific binding (which amounted generally to 10-30%) was evaluated by adding high concentrations of the specific displacers (see table). All the compounds were initially tested at 1x10⁻⁶ M concentration, and in the presence of significant displacing activity, a complete competition curve was generated (down to a concentration of 10⁻¹¹ M). All the samples were run in triplicate.
The competition curves were always analyzed (to evaluate the IC₅₀ values) by non linear curve fitting of the logistic equation according to the method reported by De Lean et al. (Am. J. Physiol., 235, E97, 1978), utilizing the ALLFIT program [publically available from the National Institutes of Health (N.I.H.) Bethesda, Maryland, USA] written for the IBM PC.

The subject of data set [3] is diastolic blood pressure. Briefly: Effects on blood pressure in anaesthetized dogs. The conditions noted are these: Canis lupus familiaris, iv; anaesthetized male beagle dogs, i.v. cumulative; active dose in lowering diastolic blood pressure by 25%; read-out: DBP ED25. The class given is in vivo.
Description: as §1, §2

Data set [4] can be described thus: Acute toxicity in mice after intraperitoneal and oral administration. Particulars: mouse, in vivo, female albino Swiss mice, mortality recorded 7 days after administration. In short, it runs like this:
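Female albino Swiss mice (20-30 g) dosed i.p. or orally at four log-scaled doses in 0.5% Methocel (10 ml/kg), 4 mice/dose. Mortality recorded at 7 days; LD₅₀ with fiducial limits by Weil's method.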

For data set [5], the target named is α₁ receptors. The experiment in a line: [3H]prazosin binding (α1 receptors), rat cerebral cortex membranes. Particulars: rat cerebral cortex crude membranes, [3H]prazosin 0.35 nM, 25°C 30 min; read-out: Receptor Binding IC50 (nM) α1.
Description: Rat cerebral cortices were homogenized in 50 volumes of original wet weight of ice-cold 50 mM Tris-HCl buffer pH 7.4. The homogenates were centrifuged at 48,000 x g for 10 minutes, and the pellets were resuspended in the same volume of ice-cold buffer, centrifuged and resuspended two more times. The final pellets obtained were resuspended in the same volume of buffer and incubated according to the conditions reported in the table below.
as §3
Data set [6] relates to rat bladder strips. Briefly: K+-induced contractions of rat bladder strips. The class given is cell-based. Particulars: 80 mM KCl, drug added 30 minutes before. As to the method: The whole bladder of the rat was removed and immediately placed in Krebs solution warmed at 37°C. […] Each strip was placed in a 10 ml organ bath and connected, under a constant load of 1 g, to an isometric strain gauge (DY-1 Basile, Comerio, Varese, Italy). […] After a 60 minutes equilibration period the strips were exposed to 80 mM KCl (final concentration). […] When the tonic contraction was stable, the strips were washed and 30 minutes later a new contraction was induced. After having recorded two or more reproducible responses, one concentration of the tested drugs was added to the bath and 30 minutes later a new contraction was induced. The experimental groups consisted of at least two preparations taken from different animals for each concentration of drug tested. The IC₅₀ values of inhibition of agonist-induced contractions were evaluated by linear regression analysis.

Where [7] appears, read: ip, intraperitoneal, read-out: Acute Toxicity in Mice LD50 (mg/kg) i.p.
The mark [8] stands for this setting: oral, read-out: Acute Toxicity in Mice LD50 (mg/kg) p.o.
[9] abbreviates: phasic contraction, read-out: K+ Stimulation of Rat Bladder IC50 (μM) Contractions Phasic.
[10] abbreviates: tonic contraction, read-out: K+ Stimulation of Rat Bladder IC50 (μM) Contractions Tonic.

Each structure is given as a SMILES string. Where two headings read alike, the source gives them in different places.

`COc1ccccc1N1CCN(CCCOc2cccc3c(=O)c(C)c(-c4ccccc4)oc23)CC1.Cl.Cl` [Example 40, 8-{3-[4-(2-methoxyphenyl)-1-piperazinyl]-propoxy}-3-methyl-4-oxo-2-phenyl-4H-1-benzopyran dihydrochloride]: the ED50 in data set [1] came out at 0.011 mg/kg. Further, the DBP/Urethra ratio in data set [1] is 13.8. Also, the IC50 in data set [2] came out at 83 nM; in data set [5] it was 75 nM; in data set [6] (setting [9]) it was 0.5 µM; in data set [6] (setting [10]), 0.9 µM. For the same molecule, the ED25 in data set [3] was 0.152 mg/kg. The LD50 at 168 h in data set [4] (setting [7]) worked out at 140 mg/kg; in data set [4] (setting [8]), 349 mg/kg.
For `COc1ccccc1N1CCN(CC(O)c2cccc3c(=O)c(C)c(-c4ccccc4)oc23)CC1.Cl` (stereo not drawn) [Example 17, 8-{1-hydroxy-2-[4-(2-methoxyphenyl)-1-piperazinyl]-ethyl}-3-methyl-4-oxo-2-phenyl-4H-1-benzopyran hydrochloride], in data set [1], the ED50 was 0.01 mg/kg. In data set [1], the DBP/Urethra ratio is 0.6*. In addition, the IC50 came out at 910 nM in data set [2], 59 nM in data set [5], 8.8 µM in data set [6] (setting [9]) and 3.8 µM in data set [6] (setting [10]). The ED25 in data set [3] is 0.0062 mg/kg. The results for the LD50 at 168 h in data set [4] (setting [7]) and in data set [4] (setting [8]) were 299 mg/kg and 608 mg/kg, respectively.
